Two molecules from patent US10106539B2, “Spiro-indolines for the treatment and prophylaxis of respiratory syncytial virus infection (RSV)” (REVIRAL LIMITED, priority 2014, dated 2018) can be followed below.

Like-named read-outs stand apart in the source and are kept apart here.

One series has as its target T1, RSV fusion (A2_F) (Human respiratory syncytial virus A, UniProt P03420).
T1 construct: expressed in transfected cells; host or cells: HEK 293T/17
Description: RSV fusion assay (luciferase reporter, transfected HEK 293T/17 cells). It is filed as cell-based. The protocol:
HEK 293T/17 cells were cultured in T75 culture flasks in Dulbecco's medium containing 10% FBS and 1× Penicillin-Streptomycin and warmed to 37° C. prior to use. The cells were passaged by first washing briefly with 3 ml PBS followed by a 4 min incubation with […] at 37° C. 7 ml media was then added to the flask and the cells dispersed via pipetting (×3) against the bottom of the flask. Two further T75 flasks were each seeded with 2×10^6 cells in 15 ml fresh media.
Cells were seeded on the T75 plates at the same density as on the 6-well plates to the area of a T75 flask and one 1.75 cm radius well from a 6-well plate were compared. 7.79×2 ml of 3×10^5 cells ml^−1 was used to seed a single T75 flask.
HEK cells were removed from a T75 flask as described above. The cells were counted and diluted to 3×10^5 cells/ml in fresh media. Two T75 flasks were each seeded with 15.58 ml diluted cells.
The plasmid DNA (for pFR-Luc and pcDNA3.1_Gal4/NFκB) to be transfected into the HEK cells was first prepared in serum free media (DMEM+Pen/Strep) containing the transfection reagent Fugene 6 (Promega). Transfections were set up as follows (Luc=pFR_Luc, Gal4=pcDNA3.1+_Gal4/NFκB, A2_F=pcDNA3.1+_A2_F)
Serum free media was placed in a 1.5 ml eppendorf tube then the fugene 6 was added into the media. The tube was vortexed for 1 s before being incubated at RT for 5 min. The plasmid DNA was then added to the tube, vortexed for 1 s, then incubated at RT for 15 min
The transfection reagents were then added to the appropriate T75 flask by tipping the flask on end and adding the reagents directly to the media already in the flask. […]
Luminescence was measured at appropriate time points as follows:
Media was discarded into Virkon and the plates washed with 100 ul PBS per well. […] Add 100 μl working luciferin buffer to each well and luminescence was measured immediately.
Media was discarded into Virkon and 100 ul SFM+20 ul CellTitre-Blue solution was added to each well. […] Resorufin fluorescence was measured at 590 nm.

The nature of series [1]: In vivo pharmacokinetics in rats (IV and PO). The following applies: rat; for Vd: 1 mg/kg (IV). Details: species or system male Sprague Dawley rats. As to the method: The pharmacokinetics of compounds were studied in vivo in male Sprague Dawley rats at doses of 1 mg/kg (IV) and 10 mg/kg (PO).
Sprague Dawley rats were treated with experimental compounds via intravenous and oral administration. Three animals for each route of administration were used with serial blood sampling at ten time points post dosing of compound.
Animals were weighed and used if between 200-250 g. Serial blood samples were collected at 0.02, 0.08, 0.25, 0.50, 1, 2, 4, 6, 8 and 24 hours post dosing. […] Blood samples were delivered into an anticoagulant (sodium heparin) and centrifuged at 4° C. Plasma samples were subsequently stored frozen at less than −20° C. prior to analysis.
Following protein precipitation with acetonitrile, samples were analysed with tandem liquid chromatography/mass spectrometry using electrospray ionisation. A full matrix curve with internal standards was employed and PK parameters were calculated.
In a similar manner, oral administration was performed by gavage at doses of 5 or 10 mg/kg at a concentration of 5 mg/ml in 1% Methyl cellulose (Sigma M7140), 0.1% Tween 80 in water. Serial samples were taken as described above.
RV039 was administered at doses of 1 mg/kg (IV) and 5 mg/kg (PO).

Series [2] is described as follows: Plasma protein binding (equilibrium dialysis), rat. It is filed as in vitro ADME. Conditions: plasma (100%). The protocol: Protein Binding Determination: Experimental Procedure
Solutions of test compound (5 μM, 0.5% final DMSO concentration) are prepared in buffer (pH 7.4) and 100% species-specific plasma. The experiment is performed using equilibrium dialysis with the two compartments separated by a semi-permeable membrane. The buffer solution is added to one side of the membrane and the plasma solution to the other side. After equilibration, samples are taken from both sides of the membrane. Standards are prepared in plasma and buffer and are incubated at 37° C.
Test compound incubations are performed in duplicate. A control compound is included in each experiment.
The solutions for each batch of compounds are combined into two groups (protein-free and protein-containing), then cassette analysed by LC-MS/MS using two sets of calibration standards for protein-free (7 points) and protein-containing solutions (6 points).

T1 sequence (P03420 26-109): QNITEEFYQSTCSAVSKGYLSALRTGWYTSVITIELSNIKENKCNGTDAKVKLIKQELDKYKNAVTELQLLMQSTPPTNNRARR
T1 sequence (P03420 137-574): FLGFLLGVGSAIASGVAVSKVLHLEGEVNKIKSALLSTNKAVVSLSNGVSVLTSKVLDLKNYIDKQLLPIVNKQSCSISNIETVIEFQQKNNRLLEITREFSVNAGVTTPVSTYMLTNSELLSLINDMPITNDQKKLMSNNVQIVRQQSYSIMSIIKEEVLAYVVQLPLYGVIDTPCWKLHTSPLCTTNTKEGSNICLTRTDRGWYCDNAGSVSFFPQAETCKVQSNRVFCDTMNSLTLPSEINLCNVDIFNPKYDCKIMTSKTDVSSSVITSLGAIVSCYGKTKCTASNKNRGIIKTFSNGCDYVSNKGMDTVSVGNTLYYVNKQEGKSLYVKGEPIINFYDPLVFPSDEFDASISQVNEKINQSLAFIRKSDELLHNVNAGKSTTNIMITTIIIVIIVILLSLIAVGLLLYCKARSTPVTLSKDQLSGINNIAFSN

A word on the IC50: it is the concentration needed to halve the response being measured. Read a low IC50 as higher potency. The term bioavailability denotes the share of a dose that reaches the circulation, judged against a reference dose that is usually intravenous. As a reminder, the Tmax is the time from dosing to the highest level. As usually defined, the fraction unbound is the share of the substance not bound to proteins or other matrix. Regarding `CC(C)CCn1c(CN2C(=O)C3(CC3)c3ccccc32)nc2cc(CN)ccc21` [RV039, 1′-((5-(aminomethyl)-1-isopentyl-1H-benzo[d]imidazol-2-yl)methyl)spiro[cyclopropane-1,3′-indolin]-2′-one, reference compound], at RSV fusion (A2_F), the IC50 was determined as 10 nM. Further, in series [1] (male, Sprague Dawley, plasma, rats, 1 mg/kg (IV) and 5 mg/kg (PO), Comparative Example 3, read-out: Bioavailability (Table 6)), the bioavailability stood at 4.5%. Moreover, in series [1] (male, Sprague Dawley, plasma, rats, Comparative Example 3, read-out: Volume of distribution (Table 6)), the Vd turned out to be 47 L/kg. In addition, the Tmax in series [1] (male, Sprague Dawley, plasma, rats, 5 mg/kg (PO), Comparative Example 3, read-out: Tmax PO (Table 6)) worked out at 7.3 h. In series [2] (pH 7.4, Comparative Example 2, read-out: PPB fraction unbound, rat (Table 5)), the fraction unbound at 5 μM is 0.1.

Broadly, the IC90 is the point of the concentration-response curve where the effect stands at 90%. Molecule `NCc1ccc2c(c1)nc(CN1C(=O)C3(CC3)c3ccc(F)cc31)n2CCCC(F)(F)F` [Example 1, 1′-{[5-(Aminomethyl)-1-(4,4,4-trifluorobutyl)-1H-1,3-benzodiazol-2-yl]methyl}-6′-fluoro-1′,2′-dihydrospiro[cyclopropane-1,3′-indole]-2′-one] gave an IC50 against RSV fusion (A2_F) of 1.1 nM. The 90% effect concentration (IC90) on RSV fusion (A2_F) (HEK293T/17, read-out: RSV Fusion Assay IC90) amounted to 9.4 nM. The bioavailability in series [1] (in vivo, male Sprague Dawley rats, 1 mg/kg (IV) and 10 mg/kg (PO), read-out: Bioavailability) came out at 42%. Further, the Vd in series [1] (in vivo, male Sprague Dawley rats, read-out: Volume of distribution) was 22 L/kg. The time to peak (Tmax) in series [1] (in vivo, male Sprague Dawley rats, 10 mg/kg (PO), read-out: Tmax PO) is 2.7 h. The fraction unbound at 5 μM in series [2] (pH 7.4, 5 μM, read-out: PPB fraction unbound, rat) is 0.52.
